From patent US12643899B2, “Antiviral agents, uses thereof and methods for their preparation” (The University of British Columbia, priority 2020, dated 2026)

Key:
Assay in all cases: microbe, parasite or virus in culture
Type in all cases: cell-based
[1] = tested on: SARS-CoV-2 Nigeria (484); details: Severe acute respiratory syndrome coronavirus 2, Calu-3
[2] = tested on: SARS-CoV-2 South Africa (501Y.V2); details: Severe acute respiratory syndrome coronavirus 2, Calu-3
[3] = tested on: SARS-CoV-2 Wuhan strain from VIDO (SB); details: Severe acute respiratory syndrome coronavirus 2, Calu-3
[4] = tested on: SARS-CoV-2 England (VOC 202012/01)

Compound: COc1c2n(c3ccccc13)[C@]1(O)C(=O)N(C)C(=O)[C@]1(O)c1c-2[nH]c2ccc(Cl)cc12 [CA, (11S,15R)-7-chloro-11,15-dihydroxy-23-methoxy-13-methyl-3,13,16-triazahexacyclo[14.7.0.0^2,10.0^4,9.0^11,15.0^17,22]tricosa-1(23),2(10),4(9),5,7,17,19,21-octaene-12,14-dione]
- IC50 [1]: 12.2 nM
- IC50 [2]: 12.2 nM
- IC50 [3]: 57.7 nM
- IC50 ([4]; Severe acute respiratory syndrome coronavirus 2, Calu-3): 0.801 nM
- EC50 ([4]; Severe acute respiratory syndrome coronavirus 2, Calu-3, read-out: ED50): ~0.8 nM
